Test [1] concerns hrpA promoter (T3SS). The test can be described thus: hrpA promoter-probe phrpA in Erwinia amylovora 273, flow cytometry. It counts as cell-based. The settings on record: Ea273 (phrpA), HIM + 100 μM compound. On the procedure:
Wild-type Erwinia amylovora 273 was used in this study. The promoter-probe plasmid phrpA was constructed as follows. The hrpA promoter region of Erwinia amylovora 273 was amplified and cloned into pPROBE-NT to produce PhrpA. Plasmid PhrpA was electroporated into Erwinia amylovora 273. Expression of hrpA was analyzed using a FACS Calibur flow cytometer (BD Biosciences, CA). Wild-type Erwinia amylovora 273 containing phrpA was cultured in a hrp-inducing medium (HIM) containing dimethyl sulfoxide (DMSO; solvent of chemical compounds), or HIM supplemented with 100 μM of each compound, and promoter activity was assessed at 6 h and 9 h by measuring GFP intensity using flow cytometry (Table 19).

In test [2] the test system is hrpA promoter (T3SS). The test can be described thus: GFP reporter plasmid phrpA, flow cytometry (FACS) of hrpA promoter activity. It counts as cell-based, Dickeya dadantii 3937. The settings on record: for mean fluorescence intensity of GFP, hrpA expression: D. dadantii 3937 (phrpA), MM + 100 μM compound; for inhibitory activity on T3SS gene (hrpA) expression, in words: D. dadantii 3937, reporter plasmid phrpA, 100 μM; for minimal effective concentration: Dickeya dadantii, read-out: minimal inhibitory concentration on hrpA expression (concentration showing inhibitory effect). The method, then:
FACS analysis of promoter activity of dspE, hrpA, hrpL, hrpN, and hrpS was carried out as described (Peng et al., 2006). Briefly, the wild-type Ech3937 and the mutant strains carrying the promoter reporter plasmid were grown on LB broth at 28° C. overnight and transferred to appropriate media. For FACS analysis, samples were collected by centrifugation, washed with 1× phosphate buffer saline (PBS) at 13,000 rpm for 1 min, and re-suspended in 1×PBS to ca 10^6 CFU/ml prior to being run in a FACS Calibur flow cytometer (BD Biosciences, CA). Three replicates were performed for each treatment.
To identify potential compounds that repress activation of T3SS, analogs and isomers of TCA and intermediates of salicylic acid and phenypropanoid biosynthesis pathways in plants were further screened for their effect on Ech3937 hrpA expression by flow cytometry (Table 9). A green fluorescent protein (GFP) reporter plasmid phrpA (pProbe-AT derivative with PCR fragment containing hrpA promoter region) was constructed, resulting in a transcriptional fusion of hrpA promoter with GFP gene. Bacterial cells containing phrpA plasmid were grown in MM supplemented with 0.1 mM of each compound. GFP intensity, which is a measurement of hrpA promoter activity, was measured by flow cytometry.
hrpA encodes the T3SS pilus required for protein translocation into plant cells. To test for an inhibitory effect on T3SS hrpA expression, the reporter plasmid phrpA was used to measure the effects of these compounds on hrpA expression. The reporter plasmid phrpA encodes a transcriptional fusion of the hrpA promoter controlling expression of green fluorescent protein (gfp). 50 μL of bacterial suspension of D. dadantii 3937 carrying the hrpA reporter (optical density at 600 nm OD600=1.0) was used as the initial inoculum and added to 5 mL of MM or MM supplemented with 100 μM of one of the compounds. The expression level of hrpA of these bacterial cells was measured by measuring GFP intensity of gated populations of the bacterial cells by flow cytometry and analyzed with Cell Quest software (BD Biosciences, San Jose, Calif.). The fluorescence intensities were an average GFP fluorescence intensity of total bacterial cells. Compounds were assayed two different times (12 and 24 h of bacterial growth) with T3SS minimal media (MM) as the control treatment for each set of experiment. Values presented in Table 14 are mean fluorescence intensity of GFP, representative of two experiments, presented as the average of three replicates with standard deviation (SD).
On the technique in general: Flow cytometry measures light scatter and fluorescence of single cells or particles in a stream.

Regarding `CCOC(=O)[C@@H]1C[C@H]1c1ccc(OC)cc1` (relative stereo) [Compound 100, Ethyl trans-2-(4-methoxyphenyl)-1-cyclopropanecarboxylate], the “Avg MFI ± SD, hrpA expression” value is reported as 447.8 ± 20.2 in the test on hrpA promoter (T3SS) [1] (6 h) and 594.6 ± 3.5 in the test with hrpA promoter (T3SS) [1] (9 h). Moreover, the results for the “mean fluorescence intensity of GFP, hrpA expression” value (“mean fluorescence intensity of GFP” for short) in the test on hrpA promoter (T3SS) [2] (12 h) and in the test with hrpA promoter (T3SS) [2] (24 h) were 45.3 ± 3.4 and 119.1 ± 22.1, respectively.

For the compound `NC(=O)/C=C/c1ccc(O)cc1` [Compound 102, trans-4-Hydroxycinnamaide], the results for the “Avg MFI ± SD, hrpA expression” value with hrpA promoter (T3SS) [1] (6 h) and in the test with hrpA promoter (T3SS) [1] (9 h) were 1134.0 ± 36.7 and 766.4 ± 94.8, respectively. Also, the figures for the “mean fluorescence intensity of GFP” value in the test on hrpA promoter (T3SS) [2] (12 h) and in the test on hrpA promoter (T3SS) [2] (24 h) were 21.1 ± 1.2 and 60.8 ± 10.6, respectively. Besides, the “inhibitory activity on T3SS gene (hrpA) expression, in words” value (“inhibitory activity on T3SS gene” for short) with hrpA promoter (T3SS) [2] was “did not show any inhibitory activity”. Besides, the minimal effective concentration in the test with hrpA promoter (T3SS) [2] amounted to 100 µM.

As to `CCOS(=O)(=O)/C=C/c1ccc(O)cc1` [Compound 122, Ethyl trans-2-(4-hydroxyphenyl)-ethenylsulfonate], the “Avg MFI ± SD, hrpA expression” value worked out at 2042.8 ± 20.7 in the test on hrpA promoter (T3SS) [1] (6 h) and 2900.6 ± 120.1 with hrpA promoter (T3SS) [1] (9 h). Besides, the “mean fluorescence intensity of GFP” value amounted to 38.6 ± 1.8 in the test with hrpA promoter (T3SS) [2] (12 h) and 60.9 ± 0.8 in the test with hrpA promoter (T3SS) [2] (24 h). For the same compound, in the test with hrpA promoter (T3SS) [2], the “inhibitory activity on T3SS gene” value is “did not exhibit any activity”.

As for `COc1ccc(/C=C/CN)cc1` [Compound 119, trans-4-Methoxycinnamylamine], the “Avg MFI ± SD, hrpA expression” value with hrpA promoter (T3SS) [1] (6 h) was 208.6 ± 18.6; in the test with hrpA promoter (T3SS) [1] (9 h), 232.9 ± 44.4. The entries for the “mean fluorescence intensity of GFP” value in the test with hrpA promoter (T3SS) [2] (12 h) and in the test on hrpA promoter (T3SS) [2] (24 h) were 47.8 ± 3.2 and 68.2 ± 10.4, respectively. For the same compound, in the test with hrpA promoter (T3SS) [2], the “inhibitory activity on T3SS gene” value is reported as “did not show any inhibitory activity”.

`COc1ccc([C@@H]2C[C@H]2C(=O)O)cc1` (relative stereo) [Compound 105, trans-2-(4-Methoxyphenyl)-1-cyclopropanecarboxylic acid]: the “Avg MFI ± SD, hrpA expression” value came to 345.3 ± 11.9 in the test on hrpA promoter (T3SS) [1] (6 h) and 200.2 ± 11.0 with hrpA promoter (T3SS) [1] (9 h). Moreover, the figures for the “mean fluorescence intensity of GFP” value in the test with hrpA promoter (T3SS) [2] (12 h) and with hrpA promoter (T3SS) [2] (24 h) were 22.9 ± 2.6 and 82.4 ± 5.8, respectively. For the same compound, the minimal effective concentration with hrpA promoter (T3SS) [2] was found to be 100 µM.

With `O=P(O)(O)/C=C/c1ccc(O)cc1` [Compound 115, trans-2-(4-Hydroxyphenyl)-vinylphosphonic acid], the “Avg MFI ± SD, hrpA expression” value in the test on hrpA promoter (T3SS) [1] (6 h) was determined as 442.4 ± 2.3; in the test on hrpA promoter (T3SS) [1] (9 h) it was 553.3 ± 32.7. In addition, the results for the “mean fluorescence intensity of GFP” value with hrpA promoter (T3SS) [2] (12 h) and in the test on hrpA promoter (T3SS) [2] (24 h) were 57.9 ± 1.6 and 79.6 ± 3.3, respectively. Besides, the “inhibitory activity on T3SS gene” value in the test with hrpA promoter (T3SS) [2] was “did not exhibit any activity”.

As for `CCOS(=O)(=O)/C=C/c1ccc(OC)cc1` [Compound 120, Ethyl trans-2-(4-methoxyphenyl)-ethenylsulfonate], the “Avg MFI ± SD, hrpA expression” value in the test with hrpA promoter (T3SS) [1] (6 h) is 371.5 ± 29.7; with hrpA promoter (T3SS) [1] (9 h), 492.0 ± 37.6. Further, the entries for the “mean fluorescence intensity of GFP” value in the test with hrpA promoter (T3SS) [2] (12 h) and with hrpA promoter (T3SS) [2] (24 h) were 49.9 ± 2.6 and 68.6 ± 6.0, respectively. Further, in the test on hrpA promoter (T3SS) [2], the “inhibitory activity on T3SS gene” value is listed as “did not exhibit any activity”.

Consider `O=C(O)/C=C/c1ccc(F)cc1` [Compound 110, trans-4-Fluorocinnamic acid], for which the “Avg MFI ± SD, hrpA expression” value is recorded as 279.2 ± 5.3 in the test with hrpA promoter (T3SS) [1] (6 h) and 152.4 ± 0.7 in the test with hrpA promoter (T3SS) [1] (9 h). The “mean fluorescence intensity of GFP” value with hrpA promoter (T3SS) [2] (12 h) was determined as 63.4 ± 8.0; in the test with hrpA promoter (T3SS) [2] (24 h), 183.8 ± 19.2. In the test with hrpA promoter (T3SS) [2], the “inhibitory activity on T3SS gene” value is “inactive”.

Turning to `O=C(O)/C=C/c1ccc(CO)cc1` [Compound 124, trans-4-Hydroxymethylcinnamic acid], the “Avg MFI ± SD, hrpA expression” value with hrpA promoter (T3SS) [1] (6 h) is recorded as 419.8 ± 12.2; with hrpA promoter (T3SS) [1] (9 h), 444.3 ± 11.4. Besides, the “mean fluorescence intensity of GFP” value in the test with hrpA promoter (T3SS) [2] (12 h) is 44.9 ± 3.5; with hrpA promoter (T3SS) [2] (24 h), 78.1 ± 3.4. Also, the “inhibitory activity on T3SS gene” value in the test with hrpA promoter (T3SS) [2] is given as “did not show any inhibitory activity”.

The values are drawn from patent US9260382B2, “Methods of reducing virulence in bacteria” (priority 2010, dated 2016).
